Assay results published in patent US5663149A, “Human cancer inhibitory pentapeptide heterocyclic and halophenyl amides” (priority 1994, dated 1997).

Columns and labels:
A498 (Renal) = conditions: Renal A498, 48 hours;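 further: NCI protocol, compound given at five doses from 0.01 to 100 µg/ml, percent growth versus untreated controls relative to cell count at time zero, regression on log dose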
Excerpt: The following measures are used to express drug activity by giving the drug dose which reduces cell growth to a specified percentage of growth:
There is no mathematical difference between ED50 and GI50, which are both calculated using the same formula. The only difference is historical usage.
TGI, (Total Growth Inhibition), is the drug dose needed to yield zero percent growth, i.e., just as many cells at the end of the experiment as were present in the beginning. Whether just as many cells were killed as were produced (steady state), or no growth occurred (total inhibition), cannot be distinguished.
Each drug is tested at five (5) doses: 100-10-1-0.1-0.01 μg/ml. Percent Growths are calculated for each dose. […] The log of the dose is used during the regression computation.
At the start of an experiment, cells from the in vitro cell cultures are inoculated into the appropriate tubes or microtiter plates. One set of control tubes/plates is immediately counted to determine the number of cells at the start of the experiment. This is the "baseline count", or "Tzero reading". At the end of the experiment (48 hours later) a second set of control tubes/plates is analyzed to determine the "Control Growth" value. The growth (or death) of cells relative to the initial quantity of cells is used to define the "Percent of Growth".

KM20L2 (Colon) = assay: NCI human tumor cell line growth inhibition, KM20L2; assay type: cell-based; conditions: Colon KM20L2, 48 hours
Method: (§1) The only difference is historical usage.
(§2) Percent Growths are calculated for each dose.
(§3) This is the "baseline count", or "Tzero reading".

PS-388 (Mouse Leukemia) = assay: P-388 mouse leukemia cell growth inhibition; assay type: cell-based; conditions: Mouse Leukemia PS-388
Method: as §1, §2, §3

NCI-H460 (Lung-NSC) = assay: NCI human tumor cell line growth inhibition, NCI-H460; assay type: cell-based; conditions: Lung-NSC NCI-H460, 48 hours
Method: as §1, §2, §3

OVCAR-3 (Ovarian) = assay: NCI human tumor cell line growth inhibition, OVCAR-3; assay type: cell-based; conditions: Ovarian OVCAR-3, 48 hours
Method: as §1, §2, §3

SF-295 (CNS) = assay: NCI human tumor cell line growth inhibition, SF-295; assay type: cell-based; conditions: CNS SF-295, 48 hours
Method: as §1, §2, §3

SK-MEL-5 (Melanoma) = assay: NCI human tumor cell line growth inhibition, SK-MEL-5; assay type: cell-based; conditions: Melanoma SK-MEL-5, 48 hours
Method: as §1, §2, §3

Row | Substance | GI-50 (A498 (Renal)) | TGI (A498 (Renal)) | GI-50 (KM20L2 (Colon)) | TGI (KM20L2 (Colon)) | ED-50 (PS-388 (Mouse Leukemia)) | GI-50 (NCI-H460 (Lung-NSC)) | TGI (NCI-H460 (Lung-NSC)) | GI-50 (OVCAR-3 (Ovarian)) | TGI (OVCAR-3 (Ovarian)) | GI-50 (SF-295 (CNS)) | TGI (SF-295 (CNS)) | GI-50 (SK-MEL-5 (Melanoma)) | TGI (SK-MEL-5 (Melanoma)) | LC-50 (A498 (Renal)) | LC-50 (KM20L2 (Colon)) | LC-50 (NCI-H460 (Lung-NSC)) | LC-50 (OVCAR-3 (Ovarian)) | LC-50 (SF-295 (CNS)) | LC-50 (SK-MEL-5 (Melanoma))
1 | L-Dolavalyl-L-Valyl-N-Methyl-(S,S,R)-Dolaisoleuinyl-(S,R,R)-Dolaproinyl-L- (p-Chloro)phenylalanine N-2-(6-Chloro)benzothiazole Amide [9l] | 0.000059 µg/mL | > 0.1 ng/mL | 0.000031 µg/mL | 0.096 ng/mL | 0.000458 µg/mL | 0.000043 µg/mL | > 0.1 ng/mL | 0.000018 µg/mL | 0.071 ng/mL | 0.000036 µg/mL | > 0.1 ng/mL | 0.0000061 µg/mL | > 0.1 ng/mL | – | – | – | – | – | –
2 | L-Dolavalyl-L-Valyl-N-Methyl-(S,S,R)-Dolaisoleuinyl-(S,R,R)-Dolaproinyl-L- Isoleucine N-3-Quinoline Amide [9s] | 0.000065 µg/mL | > 0.1 ng/mL | 0.00003 µg/mL | > 0.1 ng/mL | 0.00352 µg/mL | 0.000027 µg/mL | > 0.1 ng/mL | 0.000018 µg/mL | 0.079 ng/mL | 0.000028 µg/mL | > 0.1 ng/mL | 0.0000039 µg/mL | > 0.1 ng/mL | > 0.0001 µg/mL | > 0.0001 µg/mL | > 0.0001 µg/mL | > 0.0001 µg/mL | > 0.0001 µg/mL | > 0.0001 µg/mL
3 | L-Dolavalyl-L-Valyl-N-Methyl-(S,S,R)-Dolaisoleuinyl-(S,R,R)-Dolaproinyl-L- Methionine N-1-(2-p-Chlorophenylethyl) Amide [9i] | 0.000067 µg/mL | > 1 ng/mL | 0.0000048 µg/mL | 0.13 ng/mL | 0.000111 µg/mL | 0.0000032 µg/mL | 0.011 ng/mL | 0.000017 µg/mL | 0.072 ng/mL | 0.000026 µg/mL | > 1 ng/mL | 0.0000012 µg/mL | 0.43 ng/mL | > 0.001 µg/mL | > 0.001 µg/mL | > 0.001 µg/mL | > 0.001 µg/mL | > 0.001 µg/mL | > 0.001 µg/mL
4 | L-Dolavalyl-L-Valyl-N-Methyl-(S,S,R)-Dolaisoleuinyl-(S,R,R)-Dolaproinyl-L- Methionine N-2,5-Dichlorophenyl Amide [9g] | 0.00036 µg/mL | > 1 ng/mL | 0.00015 µg/mL | 0.61 ng/mL | 0.000125 µg/mL | 0.00017 µg/mL | 0.66 ng/mL | 0.00014 µg/mL | 0.51 ng/mL | 0.00013 µg/mL | > 1 ng/mL | 0.000062 µg/mL | 0.65 ng/mL | > 0.001 µg/mL | > 0.001 µg/mL | > 0.001 µg/mL | > 0.001 µg/mL | > 0.001 µg/mL | > 0.001 µg/mL
5 | L-Dolavalyl-L-Valyl-N-Methyl-(S,S,R)-Dolaisoleuinyl-(S,R,R)-Dolaproinyl-L- Methionine N-2-Benzothiazole Amide [9m] | 0.000016 µg/mL | > 0.1 ng/mL | 0.0000041 µg/mL | > 0.1 ng/mL | 0.000243 µg/mL | 0.000011 µg/mL | 0.08 ng/mL | 0.0000016 µg/mL | 0.011 ng/mL | 0.000022 µg/mL | > 0.1 ng/mL | 0.0000024 µg/mL | > 0.1 ng/mL | – | – | – | – | – | –
6 | L-Dolavalyl-L-Valyl-N-Methyl-(S,S,R)-Dolaisoleuinyl-(S,R,R)-Dolaproinyl-L- Methionine N-2-Chlorophenyl Amide [9b] | 0.000073 µg/mL | > 1 ng/mL | 0.000034 µg/mL | 0.18 ng/mL | 0.000211 µg/mL | 0.000031 µg/mL | 0.11 ng/mL | 0.000028 µg/mL | 0.091 ng/mL | 0.000036 µg/mL | > 1 ng/mL | 0.00002 µg/mL | > 1 ng/mL | > 0.001 µg/mL | > 0.001 µg/mL | > 0.001 µg/mL | > 0.001 µg/mL | > 0.001 µg/mL | > 0.001 µg/mL
7 | L-Dolavalyl-L-Valyl-N-Methyl-(S,S,R)-Dolaisoleuinyl-(S,R,R)-Dolaproinyl-L- Methionine N-2-Pyridyl Amide [9o] | 0.00023 µg/mL | > 1 ng/mL | 0.000033 µg/mL | 0.31 ng/mL | 0.000262 µg/mL | 0.00012 µg/mL | 0.59 ng/mL | 0.000032 µg/mL | 0.22 ng/mL | 0.00016 µg/mL | > 1 ng/mL | 0.000016 µg/mL | 0.6 ng/mL | > 0.001 µg/mL | > 0.001 µg/mL | > 0.001 µg/mL | > 0.001 µg/mL | > 0.001 µg/mL | > 0.001 µg/mL
8 | L-Dolavalyl-L-Valyl-N-Methyl-(S,S,R)-Dolaisoleuinyl-(S,R,R)-Dolaproinyl-L- Methionine N-3-Chlorophenyl Amide [9c] | 0.000084 µg/mL | > 1 ng/mL | 0.000023 µg/mL | 0.1 ng/mL | 0.00000264 µg/mL | 0.000025 µg/mL | 0.11 ng/mL | 0.000011 µg/mL | 0.1 ng/mL | 0.000031 µg/mL | > 1 ng/mL | 0.0000013 µg/mL | 0.26 ng/mL | > 0.001 µg/mL | > 0.001 µg/mL | > 0.001 µg/mL | > 0.001 µg/mL | > 0.001 µg/mL | > 0.001 µg/mL
9 | L-Dolavalyl-L-Valyl-N-Methyl-(S,S,R)-Dolaisoleuinyl-(S,R,R)-Dolaproinyl-L- Methionine N-3-Quinoline Amide [9p] | 0.000008 µg/mL | > 0.1 ng/mL | 0.00000065 µg/mL | > 0.1 ng/mL | 0.000356 µg/mL | 0.0000031 µg/mL | 0.017 ng/mL | 0.00000032 µg/mL | 0.01 ng/mL | 0.000004 µg/mL | > 0.1 ng/mL | 0.00000038 µg/mL | > 0.1 ng/mL | > 0.0001 µg/mL | > 0.0001 µg/mL | > 0.0001 µg/mL | > 0.0001 µg/mL | > 0.0001 µg/mL | > 0.0001 µg/mL
